SMILES strings stand for the structures.

Series [1] deals with Human betaherpesvirus 5. Briefly: Compound was evaluated for antiviral activity measured as percentage inhibition determined at a concentration of 100 (uM) against mutant alpha-Ala HCMV protease. It is filed as functional.
Series [2] has as its target Capsid scaffolding protein (Human cytomegalovirus (strain AD169) (HHV-5) (Human herpesvirus 5), UniProt P16753). Briefly: Concentration required to inhibit the mutant alpha-Ala HCMV protease by 50% was determined.
Series [3] has as its system Human betaherpesvirus 5. Briefly: Compound was evaluated for antiviral activity measured as percentage inhibition determined at a concentration of 500 (uM) against mutant alpha-Ala HCMV protease. The format is functional.
A short description of series [4]: Compound was tested for its stability by HPLC method, value expressed as half life. It is filed as physicochemical.
The target of series [5] is Acetylcholinesterase (Homo sapiens, UniProt P22303). Briefly: Concentration required to inhibit the mammalian Acetylcholinesterase by 50% was determined.
Chain of Acetylcholinesterase (P22303 whole entry): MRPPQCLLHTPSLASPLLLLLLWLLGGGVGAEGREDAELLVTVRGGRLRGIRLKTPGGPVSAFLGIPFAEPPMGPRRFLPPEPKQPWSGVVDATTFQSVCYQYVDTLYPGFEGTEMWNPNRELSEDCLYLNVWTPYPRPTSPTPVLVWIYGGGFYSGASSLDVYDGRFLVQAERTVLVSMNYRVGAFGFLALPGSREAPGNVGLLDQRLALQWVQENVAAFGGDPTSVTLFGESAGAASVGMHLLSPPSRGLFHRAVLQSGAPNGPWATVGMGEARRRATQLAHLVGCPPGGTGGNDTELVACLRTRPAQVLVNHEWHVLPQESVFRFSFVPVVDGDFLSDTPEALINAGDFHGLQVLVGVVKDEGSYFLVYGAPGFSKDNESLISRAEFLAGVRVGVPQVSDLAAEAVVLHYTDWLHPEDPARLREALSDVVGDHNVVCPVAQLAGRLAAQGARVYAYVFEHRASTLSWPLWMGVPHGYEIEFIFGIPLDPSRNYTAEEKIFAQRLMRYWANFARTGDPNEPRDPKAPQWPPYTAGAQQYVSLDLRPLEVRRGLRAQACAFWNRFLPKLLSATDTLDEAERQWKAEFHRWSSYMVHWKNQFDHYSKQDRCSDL
In series [6] the test system is Human betaherpesvirus 5. Briefly: Binding affinity towards mutant alpha-Ala HCMV protease was determined. The format is functional.
In series [7] the target is Chymotrypsinogen A (Bos taurus, UniProt P00766). Briefly: Concentration required to inhibit the mammalian Chymotrypsinogen by 50% was determined.
For series [8], the species on record is Homo sapiens. Description: Concentration required to inhibit the mammalian elastase by 50% was determined. It is filed as functional, organism-based.
The subject of series [9] is Human betaherpesvirus 5. Briefly: 50 % concentration required to inhibit the mutant alpha-Ala HCMV protease was determined. The format is functional.
The subject of series [10] is Human betaherpesvirus 5. Briefly: The compound was evaluated for antiviral activity measured as percentage inhibition determined at a concentration of 100 (uM) against mutant alpha-Ala HCMV protease. It is filed as functional.

Chain of Capsid scaffolding protein (P16753 1-256 limits assumed): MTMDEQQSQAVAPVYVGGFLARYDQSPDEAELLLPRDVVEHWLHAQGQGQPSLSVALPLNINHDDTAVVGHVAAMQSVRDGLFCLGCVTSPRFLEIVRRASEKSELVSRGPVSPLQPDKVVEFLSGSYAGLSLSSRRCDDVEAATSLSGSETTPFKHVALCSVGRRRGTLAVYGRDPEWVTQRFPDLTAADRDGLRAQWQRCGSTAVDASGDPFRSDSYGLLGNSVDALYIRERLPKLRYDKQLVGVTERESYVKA

Usually Inhibition stands for the drop in the measured response relative to a control, in per cent. Low values mean a weak effect, high ones a strong effect. In general, IC50 refers to the concentration needed to halve the response being measured. A higher IC50 goes with weaker potency. Take `C[C@@H]1C(=O)N(C(=O)NCc2ccccc2)[C@@H]1Oc1ccc(C(=O)O)cc1`: the Inhibition in series [1] amounted to 12%. This molecule also displayed an IC50 in series [2] above 100 µM.
For `CC(=O)O[C@@H]1CC(=O)N1C(=O)NC(C)C`, in that order: 30% and above 100 µM.
`CNC(=O)N1CCC1=O` returned an Inhibition in series [3] of 7.7%.
With `CC(=O)O[C@@H]1[C@@H](C)C(=O)N1C(=O)NCc1ccccc1`, the half-inhibitory concentration (IC50) in series [2] amounted to 6.5 µM.
For `CC(=O)OC1CC(=O)N1` (stereo not given), the Inhibition in series [3] is on record as 0%.
The half-life is how long it takes for the measured level to halve. High values mean slow decline, low ones rapid decline. A word on the Ki: it is a measure of affinity in units of concentration, obtained from inhibition or displacement. Low readings indicate tighter binding, high ones weaker binding. Take `C[C@H]1C(=O)N(C(=O)NCc2ccccc2)[C@@H]1Oc1ccc(C(=O)O)cc1`: in series [4], the half-life is 3.1 h. In addition, the IC50 in [5] is above 100 µM; in series [7] it was 1.6 µM; in series [8], 3.9 µM; in series [2], 20 µM. This molecule also displayed an inhibition constant Ki in [6] of 5.6 µM.
Turning to `CCC1(CC)C(=O)N(C(=O)NC)[C@@H]1OC(C)=O`, the Inhibition in series [1] is given as 5%. The molecule also came in with an IC50 in [2] above 100 µM.
For `CCNC(=O)N1C(=O)C[C@H]1OC(C)=O` the same measures were 36% and above 100 µM.
In turn, `C[C@H]1C(=O)N(C(=O)NCc2ccccc2)[C@@H]1Oc1ccc(C(=O)C(C)(C)C)cc1` gave a half-life in [4] of 22.8 h. The IC50 was above 100 µM in [5], above 100 µM in [7], above 100 µM in series [8] and 17 µM in [2]. In addition, the Ki in [6] stood at 5.7 µM.
Regarding `CNC(=O)N1C(=O)C[C@H]1OC(C)=O`, the Inhibition in [1] was 29%; in series [3], 68.5%. In addition, the IC50 in [9] is above 100 µM.
In turn, `CC(=O)O[C@@H]1[C@H](C)C(=O)N1C(=O)Nc1ccccc1` yielded a half-inhibitory concentration (IC50) in series [2] above 100 µM.
`CC(=O)O[C@H]1N(C(=O)NCc2ccccc2)C(=O)C1(C)C` gave an Inhibition in [1] of 6%. For the same molecule, in series [2], the IC50 is above 100 µM.
With `CC(=O)O[C@@H]1[C@@H](C)C(=O)N1C(=O)Nc1ccccc1`, half-maximal inhibition in [2] (IC50) was put at 86 µM.
In the case of `CCCCNC(=O)N1C(=O)C[C@H]1OC(C)=O`, the affinity in [6], expressed as Ki, was 26 µM. In series [2], this molecule yielded an IC50 of 68 µM.
In series [4], `CC[C@H]1C(=O)N(C(=O)NCc2ccccc2)[C@@H]1Oc1ccc(C(=O)O)cc1` had a half-life of 7.6 h. Also, the Ki in series [6] is 8.3 µM. The IC50 in series [2] worked out at 50 µM.
In [4], `CC(=O)O[C@@H]1CC(=O)N1C(=O)NCc1ccccc1` gave a half-life of 0.53 h. Further, the Ki in series [6] worked out at 20 µM. In series [2], this molecule gave an IC50 of 42 µM.
Consider `C[C@@H]1C(=O)N(C(=O)NCc2ccccc2)[C@@H]1Oc1ccc(C(=O)C(C)(C)C)cc1`, for which the Inhibition in series [1] stood at 35%. The molecule also showed an IC50 in [2] above 100 µM.
`O=C(O)c1ccc(O[C@@H]2CC(=O)N2C(=O)NCc2ccccc2)cc1` showed a half-life in series [4] of 1.4 h. The same molecule had an Inhibition in series [1] of 48%. The molecule further registered an IC50 in [2] above 100 µM.
With `CC(C)NC(=O)N1C(=O)C[C@H]1Oc1ccc(C(=O)O)cc1`, the Inhibition in series [1] came to 8%. In [2], the IC50 was found to be 100 µM.
Take `CC(=O)O[C@@H]1[C@H](C)C(=O)N1C(=O)NCc1ccccc1`: in [2], the IC50 was determined as 27 µM.
Turning to `O=C(O)c1ccc(O[C@@H]2CC(=O)N2C(=O)Nc2ccccc2)cc1`, the Inhibition in series [1] was determined as 43%. This molecule registered an IC50 in [2] above 100 µM.
`CC[C@@H]1C(=O)N(C(=O)NCc2ccccc2)[C@@H]1Oc1ccc(C(=O)O)cc1` came in with an Inhibition in series [10] of 25%. In series [2], this molecule yielded an IC50 above 100 µM.

(Values after ChEMBL document CHEMBL1130748, “Design and synthesis of monocyclic beta-lactams as mechanism-based inhibitors of human cytomegalovirus protease” (Bioorg Med Chem Lett, 1998).)
